Results on 33 compounds are retold here after EP2351737A1, “3-Amino-1-arylpropyl indoles and aza-substituted indoles” (F. Hoffmann-La Roche AG, priority 2005, dated 2007).

For assay [1], the target named is T1, Human Serotonin Transporter (hSERT) (Homo sapiens, UniProt P31645).
T1 construct: expressed in transfected cells; membranes prepared from them
The assay can be described thus: Human Serotonin Transporter (hSERT) Scintillation Proximity Assay (SPA), competition with [3H]-Citalopram. Type of assay: binding. The conditions noted are these: membranes of HEK-293 cells expressing recombinant hSERT, Ki by Cheng-Prusoff; for Ki: read-out: pKi SERT (converted). (In a scintillation proximity assay essentially only radioactivity close to the scintillant gives light.)
Source text: Screening for Human Serotonin Transporter (hSERT) Antagonists Using a Scintillation Proximity Assay (SPA)
Scintillation Proximity Assay (SPA) works by bringing radioligand within close proximity to the bead's scintillant to stimulate light emission. […] Unbound radioligand produced no signal as a result of distant proximity to scintillant (lack of energy transfer).

Assay [2] concerns the target Human Norepinephrine Transporter (hNET) (Homo sapiens, UniProt P23975). The assay can be described thus: Human Norepinephrine Transporter (hNET) Scintillation Proximity Assay (SPA), competition with [3H]-Nisoxetine. The conditions noted are these: membranes of HEK-293 cells expressing recombinant hNET, Ki by Cheng-Prusoff; for Ki: pKi NET.

Structures can show the parent of a compound that is named as a salt.

Sequence of Human Norepinephrine Transporter (hNET) (P23975 whole entry): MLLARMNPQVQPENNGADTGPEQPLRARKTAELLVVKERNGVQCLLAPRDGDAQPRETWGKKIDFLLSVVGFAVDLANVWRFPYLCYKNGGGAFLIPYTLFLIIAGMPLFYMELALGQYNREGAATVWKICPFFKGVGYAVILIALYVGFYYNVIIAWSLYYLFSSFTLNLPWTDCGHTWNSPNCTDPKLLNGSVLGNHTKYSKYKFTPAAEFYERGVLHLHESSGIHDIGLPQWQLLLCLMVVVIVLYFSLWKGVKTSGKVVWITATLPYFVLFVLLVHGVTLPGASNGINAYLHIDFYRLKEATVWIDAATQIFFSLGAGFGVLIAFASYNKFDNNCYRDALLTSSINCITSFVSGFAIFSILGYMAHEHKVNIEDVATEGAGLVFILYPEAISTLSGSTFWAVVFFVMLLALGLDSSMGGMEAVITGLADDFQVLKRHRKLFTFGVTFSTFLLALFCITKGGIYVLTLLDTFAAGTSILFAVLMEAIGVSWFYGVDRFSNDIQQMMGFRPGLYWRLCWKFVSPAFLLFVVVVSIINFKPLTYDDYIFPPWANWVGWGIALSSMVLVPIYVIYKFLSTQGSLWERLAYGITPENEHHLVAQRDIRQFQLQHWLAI
T1 sequence (P31645 whole entry): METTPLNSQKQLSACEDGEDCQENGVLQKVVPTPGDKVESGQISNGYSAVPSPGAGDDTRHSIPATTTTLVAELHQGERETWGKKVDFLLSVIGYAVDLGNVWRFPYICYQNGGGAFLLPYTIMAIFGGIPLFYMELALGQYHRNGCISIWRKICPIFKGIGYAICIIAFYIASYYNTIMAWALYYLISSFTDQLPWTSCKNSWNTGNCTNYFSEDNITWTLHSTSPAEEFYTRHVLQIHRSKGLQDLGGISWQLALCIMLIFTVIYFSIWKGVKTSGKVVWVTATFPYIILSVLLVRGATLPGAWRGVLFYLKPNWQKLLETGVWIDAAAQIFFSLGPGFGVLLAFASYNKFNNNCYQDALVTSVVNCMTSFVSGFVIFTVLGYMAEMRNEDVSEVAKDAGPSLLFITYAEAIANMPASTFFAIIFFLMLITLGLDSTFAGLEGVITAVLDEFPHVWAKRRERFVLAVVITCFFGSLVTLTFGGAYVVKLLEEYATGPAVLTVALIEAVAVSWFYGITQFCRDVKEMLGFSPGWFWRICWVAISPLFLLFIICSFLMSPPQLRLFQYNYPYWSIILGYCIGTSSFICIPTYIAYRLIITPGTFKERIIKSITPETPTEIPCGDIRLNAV

Consider `CNCCC(c1ccccc1)c1cc(OC)c2[nH]cc(C#N)c2c1` (centres unmarked) [Compound 96, 7-Methoxy-5-(3-methylamino-1-phenyl-propyl)-1H-indole-3-carbonitrile], for which the Ki in assay [1] is 85.1 nM; in assay [2] it was 97.7 nM.
The corresponding values for `CNCCC(c1ccccc1)c1ccc2ccn(C)c2c1` (centres unmarked) [Compound 9, Methyl-[3-(1-methyl-1H-indol-6-yl)-3-phenyl-propyl]-amine] are 9.55 nM and 74.1 nM.
The corresponding values for `CNCCC(c1ccccc1)c1ccc2[nH]ncc2c1` (centres unmarked) [Compound 51, [3-(1H-Indazol-5-yl)-3-phenyl-propyl]-methyl-amine hydrochloride] are 15.8 nM and 34.7 nM.
The corresponding values for `CNCCC(c1ccccc1)c1ccc2[nH]cc(S(C)(=O)=O)c2c1` (centres unmarked) [Compound 16] are 151 nM and 724 nM.
In the case of `CNCCC(c1ccccc1)c1ccc2[nH]c(C)cc2c1` (centres unmarked) [Compound 7, Methyl-[3-(2-methyl-1H-indol-5-yl)-3-phenyl-propyl]-amine], the Ki is 11 nM in assay [1] and 91.2 nM in assay [2].
The corresponding values for `CNCCC(c1ccccc1)c1ccc2[nH]c(C(N)=O)cc2c1` (centres unmarked) [Compound 24, 5-(3-Methylamino-1-phenyl-propyl)-1H-indole-2-carboxylic acid amide] are 70.8 nM and 2.88 nM.
Take “[3-(7-Methoxy-1H-indol-5-yl)-3-phenyl-propyl]-methyl-amine [Compound 22]”: in assay [1], the “pKi SERT” value was found to be 7.66. Also, the “pKi NET” value in assay [2] worked out at 8.39.
As to `CNCCC(c1ccccc1)c1ccc2[nH]cc(C(N)=O)c2c1` (centres unmarked) [Compound 91, 5-(3-Methylamino-1-phenyl-propyl)-1H-indole-3-carboxylic acid amide], the Ki in assay [1] was 33.9 nM; in assay [2], 603 nM.
With “[3-(5-Methoxy-1H-indol-6-yl)-3-phenyl-propyl]-methyl-amine [Compound 86]”, the “pKi SERT” value in assay [1] is 8.01. The “pKi NET” value in assay [2] amounted to 7.63.
Turning to `Cn1cc(C#N)c2cc(C(CCN)c3ccccc3)cc(F)c21` (centres unmarked) [Compound 126, 5-(3-Amino-1-phenyl-propyl)-7-fluoro-1-methyl-1H-indole-3-carbonitrile], the Ki in assay [1] was 22.9 nM; in assay [2], 398 nM.
The corresponding values for `CNCCC(c1ccccc1)c1ccc2[nH]cc(S(=O)(=O)N(C)C)c2c1` (centres unmarked) [Compound 90, 5-(3-Methylamino-1-phenyl-propyl)-1H-indole-3-sulfonic acid dimethylamide] are 38 nM and 240 nM.
Turning to “[3-(7-Fluoro-1H-indol-5-yl)-3-(4-fluoro-phenyl)-propyl]-methyl-amine [Compound 94]”, in assay [1], the “pKi SERT” value turned out to be 7.75. In addition, in assay [2], the “pKi NET” value was found to be 8.0.
The corresponding values for “[3-(7-Fluoro-1H-indol-5-yl)-3-naphthalen-2-yl-propyl]-methyl-amine [Compound 106]” are 8.28 and 7.68.
As to `CNCCC(c1ccc2[nH]ccc2c1)c1cccc2cc[nH]c12` (centres unmarked) [Compound 121, [3-(1H-Indol-7-yl)-3-(1H-indol-5-yl)-propyl]-methyl-amine], the figures for the Ki in assay [1] and in assay [2] were 46.8 nM and 56.2 nM, respectively.
The corresponding values for `CNCCC(c1ccccc1)c1ccc2[nH]c(C#N)cc2c1` (centres unmarked) [Compound 128, 5-(3-Methylamino-1-phenyl-propyl)-1H-indole-2-carbonitrile] are 1.02 nM and 57.5 nM.
The corresponding values for `CNCCC(c1ccccc1)c1ccc2[nH]cc(C(=O)N(C)C)c2c1` (centres unmarked) [Compound 92, 5-(3-Methylamino-1-phenyl-propyl)-1H-indole-3-carboxylic acid dimethylamide] are 35.5 nM and 316 nM.
On to “5-[1-(1H-Indol-5-yl)-3-methylamino-propyl]-1H-indole-3-carbonitrile [Compound 122]”, for which the “pKi SERT” value in assay [1] came out at 9.24. Besides, the “pKi NET” value in assay [2] was 7.7.
Turning to `CNCCC(c1ccc2[nH]ccc2c1)c1ccc2sccc2c1` (centres unmarked) [Compound 116, [3-Benzo[b]thiophen-5-yl-3-(1H-indol-5-yl)-propyl]-methyl-amine], the Ki in assay [1] is 1.74 nM; in assay [2], 5.01 nM.
As for “[3-(7-Fluoro-1H-indol-5-yl)-3-(3-fluoro-phenyl)-propyl]-methyl-amine [Compound 93]”, the “pKi SERT” value in assay [1] stood at 7.76. Besides, the “pKi NET” value in assay [2] is 8.41.
The corresponding values for “[3-(3,4-Dichloro-phenyl)-3-(1H-indol-5-yl)-propyl]-methyl-amine [Compound 107]” are 8.17 and 7.83.
As to `CNCCC(c1ccccc1)c1ccc2sccc2c1` (centres unmarked) [Compound 143, (3-Benzo[b]thiophen-5-yl-3-phenyl-propyl)-methyl-amine], the values for the Ki in assay [1] and in assay [2] were 22.4 nM and 1.55 nM, respectively.
The corresponding values for `CN(C)CCC(c1ccccc1)c1ccc2[nH]ccc2c1` (centres unmarked) [Compound 113, [3-(1H-Indol-5-yl)-3-phenyl-propyl]-dimethyl-amine] are 178 nM and 83.2 nM.
With “[3-(3,4-Dichloro-phenyl)-3-(7-fluoro-1H-indol-5-yl)-propyl]-methyl-amine [Compound 109]”, in assay [1], the “pKi SERT” value came to 7.9. For the same compound, in assay [2], the “pKi NET” value is reported as 7.56.
For the compound `CNCCC(c1ccccc1)c1cc2cc[nH]c2cc1F` (centres unmarked) [Compound 102, [3-(6-Fluoro-1H-indol-5-yl)-3-phenyl-propyl]-methyl-amine], the Ki is 77.6 nM in assay [1] and 28.8 nM in assay [2].
The corresponding values for `CNCCC(c1ccc2c(c1)OCCN2C)c1ccc2[nH]ccc2c1` (centres unmarked) [Compound 114, [3-(1H-Indol-5-yl)-3-(4-methyl-3,4-dihydro-2H-benzo[1,4]oxazin-7-yl)-propyl]-methyl-amine] are 77.6 nM and 87.1 nM.
`NCCC(c1ccc2[nH]ccc2c1)c1ccc2[nH]ccc2c1` [Compound 119, 3,3-Bis-(1H-indol-5-yl)-propylamine]: the Ki in assay [1] was 72.4 nM; in assay [2], 11.5 nM.
The corresponding values for `NCCC(c1ccccc1)c1cc(Cl)c2[nH]c(C(N)=O)cc2c1` (centres unmarked) [Compound 103, 5-(3-Amino-1-phenyl-propyl)-7-chloro-1H-indole-2-carboxylic acid amide] are 145 nM and 4.37 nM.
For the compound “5-(3-Methylamino-1-phenyl-propyl)-1H-indole-3-carboxylic acid methylamide [Compound 129]”, in assay [1], the “pKi SERT” value came to 7.18. In addition, the “pKi NET” value in assay [2] was found to be 7.72.
The corresponding values for `CNCCC(c1ccccc1)c1cc(F)c2[nH]ccc2c1` (centres unmarked) [Compound 13] are 7.4 and 8.2.
Regarding `CNCCC(c1ccccc1)c1ccc2[nH]ccc2c1` (centres unmarked) [Compound 42, [3-(1H-Indol-5-yl)-3-phenyl-propyl]-methyl-amine], the Ki in assay [1] was 32.4 nM. Besides, the “pKi NET” value in assay [2] stood at 8.0.
Consider `CNCCC(c1ccccc1)c1cc(F)c2[nH]cc(C#N)c2c1` (centres unmarked) [Compound 19], for which the figures for the Ki in assay [1] and in assay [2] were 2.14 nM and 56.2 nM, respectively.
Turning to “5-(3-Methylamino-1-phenyl-propyl)-1H-indole-3-carbonitrile [Compound 10]”, the “pKi SERT” value in assay [1] was determined as 9.42. In addition, the “pKi NET” value in assay [2] came out at 7.03.
For `CNCCC(c1ccc2[nH]ccc2c1)c1nccs1` (centres unmarked) [Compound 139, [3-(1H-Indol-5-yl)-3-thiazol-2-yl-propyl]-methyl-amine], in assay [2], the Ki was 74.1 nM.
